The text below walks through data of article PMC7756445, “A Novel Prodrug of a nNOS Inhibitor with Improved Pharmacokinetic Potential” (Chemmedchem, 2020).

Like-named read-outs stand apart in the source and are kept apart here.

The series in a line: Log D and log P by shake-flask method. The conditions noted are these: n-octanol/aqueous buffer. It is filed as physicochemical. From the text:
The herein presented amidoxime 2 was designed as prodrug of the amidine 1 to improve membrane permeability and oral bioavailability. In this context, the deepening of the physicochemical properties is essential to obtain a favorable pharmacological profile. Therefore, we investigated the lipophilicity, the passive permeation through the human GI tract through the PAMPA assays, and the chemical and enzymatic stabilities in simulated GI fluids and plasma. […] In this study, the lipophilicity of our compounds was determined by means of the “shake‐flask method” and compared to the corresponding values calculated by the software. ^[43] However, for ionizable compounds, the distribution coefficient (log D) should be used instead of log P in the pH range where ionic species exist. ^[44] In this study, log P and log D were calculated (Table 1).
The column was a Waters Symmetry RP‐C18 column (4.6×150 mm, 5 μm). The mobile phase was a mixture of TFA 0.01 M/ACN/(MeOH/THF 90 : 10) 20/52/28 and the flow rate was 0.7 mL/min. The UV detector was set at a length of 254 nm.
Both n‐octanol and aqueous buffer (pH 1.4, 6.5 and 9.4) solutions were saturated of each other. 2 mg of tested compound was dissolved in 500 μL of organic phase and mixed with an equal volume of aqueous buffer by repeated inversions of up to 200 times for 5 min and then allowed to stand for 30 min for the phases to fully separate. Thereafter, the respective phases were analyzed by HPLC.

A word on the logP: it is a log measure of how a compound divides between an organic and an aqueous phase. Read a low logP as lower lipophilicity. As to `C/C(=N\O)NC(c1ccccc1)c1ccccc1` [Compound 2, (1E)‐N‐(diphenylmethyl)‐N′‐hydroxyethanimidamide], the logD was -0.16 (pH 1.4, n-octanol/aqueous buffer pH 1.4, mean ± SD of three, read-out: log D 1.4); -0.16 to 0.39 (pH 1.4, pH 1.4 to 9.4, range stated in text, read-out: log D values over the pH values tested); 0.29 (pH 6.5, n-octanol/aqueous buffer pH 6.5, mean ± SD of three, read-out: log D 6.5); 0.39 (pH 9.4, n-octanol/aqueous buffer pH 9.4, mean ± SD of three, read-out: log D 9.4). For the setting “shake-flask, as free amine, mean ± SD of three”, this molecule displayed a log partition coefficient (logP) of 3.24.
